What was measured:
[1] = tested on: mouse osteoblast precursor cells MC3T3-E1 Subclone 14; experiment: Differentiation-promoting effect, ALP enzyme activity assay; type: cell-based; settings: for ALP enzyme activity relative values (experimental group/blank group): 6th day
From the text: (2) Study on the differentiation-promoting effect of compounds on mouse osteoblast precursor cells MC3T3-E1 Subclone 14 (see Table 2): MC3T3-E1 subclone 14 cells were digested with pancreatin and collected and then seeded into a 6-well plate at 4×10^4/well. […] The administration concentrations of the compounds were 10^−4˜10^−9 M, respectively; and the administration concentration of the positive control drug group genistein GEN was 10^−6 M, a concentration at which it had the highest osteogenesis promoting ability as reported in the literature. On the 6th day of administration, each well was washed twice with PBS, 150 uL of Western and IP cell lysate (with no protein inhibitor, commercially available from Beyotime) was then added to lyse the cells. This operation was performed on ice. 50 uL of cell lysate was diluted to 250 uL with PBS. 50 uL of dilution was additionally transferred to a 96-well plate for an ALP enzyme activity assay. The absorbance of each well in the 96-well plate was measured with a microplate reader at 405 nm.

[2] = tested on: mouse osteoblast precursor cells MC3T3-E1 Subclone 14; experiment: Proliferation-promoting effect by MTT assay; type: cell-based; settings: for Proliferation Rate: 6th day, MTT
Protocol: Genistein and estradiol were used as positive control groups. MC3T3-E1 Subclone 14 was cultured using the α-MEM medium containing 10% FBS in a constant temperature incubator at 37° C. with 5% CO2. The MC3T3-E1 Subclone 14 cells in logarithmic growth phase and in good condition were digested with addition of an appropriate amount of trypsin (commercially available from GIBCO), and the cells were collected. The cells were resuspended in the α-MEM medium containing 10% FBS, and seeded on a 96-well plate at an amount of 2000 cells per well. After cell adhesion, the medium was changed to the α-MEM medium containing 10% FBS of different concentrations of compounds at 200 μL per well. The cells with the culture fluid containing 0.2% DMSO added thereto were used as a negative control group of the medium. The medium was added to the wells without seeded cells as a blank control group. Six replicate wells were set for each concentration. The medium was changed once every 2 days, and on the 6th day of administration, a 20 μL MTT/PBS solution at 5 mg/mL was added to the above 96-well plate, and the incubation was continued for 4 hours. After the time point, the liquid was carefully aspirated and 150 μL of DMSO was added to each well to completely dissolve the purple crystal formazan formed by live cells and MTT. The optical density (OD) value was measured at 490 nm with a microplate reader. The proliferation rate was calculated according to the following formula: Proliferation rate=[(the average OD value of the administration group−the average OD value of the blank group)/(the average OD value of the culture fluid control group−the average OD value of the blank group)].

[3] = tested on: osteoblasts; experiment: Formation of calcium nodules in osteoblasts (Alizarin Red); type: cell-based, mouse; settings: 15th day
Protocol: (3) Study on the effect of target compounds on the formation of calcium nodules in osteoblasts (see FIG. 1 and Table 3 for details): after being digested, the cells were seeded into a 6-well plate at 4×10^4/well. […] The administration concentrations of the compounds were 10^−4˜10^−9 M, respectively; and the concentration of genistein is 10^−6 M. On the 15th day of administration, the medium was aspirated, each well was then washed twice with PBS, the cells were then fixed with 95% ethanol for 10 minutes and rinsed twice with double distilled water. 2 mL of a 0.1% Alizarin Red-Tris. HCl solution (PH=8.3) was added to each well, the cells were incubated at 37° C. for 30 minutes, then rinsed with double distilled water for several times, dried, and mounted. The formation of calcium nodules was further observed by taking pictures under a 40× microscope. Afterwards, 1 mL of a 10% cetylpyridinium chloride solution was added to each well, and the incubation was carried out for 30 minutes to release the Alizarin Red staining. The solution was transferred to a 96-well plate at 200 uL per well, the absorbance was measured at 562 nm using a microplate reader, and a quantitative analysis of calcium nodules was performed.

[4] = tested on: mouse mononuclear macrophages RAW264.7; experiment: Bone resorption inhibition: TRAP-positive multinucleated osteoclast count; type: cell-based; settings: 5 days; for Number of Osteoclasts (cell): control group 117
Protocol: After being cultured for 5 days, the cells were stained with a tartrate-resistant acid phosphatase TRAP incubation solution, mounted with glycerol gelatin, and observed under light microscope to count stained TRAP-positive multinucleated cells (as shown in FIG. 2). The inhibition rate of the administrated drug on the number of TRAP-positive multinucleated cells is (nTRAP-positive multinucleated osteoclasts in the negative control group−nTRAP-positive multinucleated osteoclasts in the drug administration group)/nTRAP-positive multinucleated osteoclasts in the negative control group×100%.

[5] = target: estrogen receptor ERβ (Homo sapiens, UniProt Q92731); experiment: Estrogen receptor agonism (earlier experiments of the research team)
[6] = Determination of lipid-water partition coefficients (n-octanol/water, HPLC); type: physicochemical; settings: 37° C.
Protocol: (1) Determination of lipid-water partition coefficients: a standard curve was first made. […] Their respective solution was subjected to the HPLC sample injection analysis. HPLC conditions were: mobile phase: 5%˜95% acetonitrile/water, gradient elution, a flow rate of 0.6 mL/min, a sample injection volume of 10 μL, a detection wavelength of 254/280 nm, run for 20 min. The retention time and peak area were recorded, and the standard curve was obtained by regressing the concentration and the peak area.
Moreover, 10 mL of water and 10 mL of n-octanol were taken into a 25 mL eggplant-shaped flask and stirred for 24 hours until the two phases were saturated with each other. The mixed solution was then transferred to a separatory funnel. Let it stand for liquid separation. 1 mL of the upper layer (saturated n-octanol layer) was taken, about 2 mg of the compound to be tested was added to vortex for 5 minutes to fully dissolve, and 1 mL of saturated aqueous phase was additionally taken and mixed with the saturated n-butanol phase in which the compound was dissolved. After vortexing for 5 minutes and oscillation for 24 hours in a water bath at 37° C., centrifugation was performed at 3500 rpm for 15 minutes. The upper n-octanol layer and the lower aqueous layer were respectively taken for the sample injection analysis under HPLC conditions. […]

[7] = Metabolic stability in human liver microsomes; type: in vitro ADME; settings: 37° C.
Protocol: Experimental method: the incubation system comprising human liver microsomes, cofactors, and PBS was pre-incubated at 37° C. for 3 minutes, and a substrate was added to start the reaction. Sampling was performed at 0, 1, 5, 10, 15, 20, 30, and 60 minutes after the start of the reaction, and an appropriate terminator was added to terminate the reaction. Sample treatment (n=3): appropriate internal standards were added to each; after vortexing, centrifugation was performed at a high speed, the supernatant was taken, and the substrate was detected by employing HPLC-MS/MS. The peak area at a time point 0 min was taken as 100%. Peak areas at other time points were converted to the remaining percentage, the natural logarithm of the remaining percentage at each time point versus incubation time was plotted, and a slope (−k) was calculated by linear regression, and then CLint (mL·min^−1·mg^−1) was calculated based on the inherent clearance (CLint)=(k×the volume of incubation solution)/mass of liver microsomes.

Chain of estrogen receptor ERβ (Q92731 whole entry): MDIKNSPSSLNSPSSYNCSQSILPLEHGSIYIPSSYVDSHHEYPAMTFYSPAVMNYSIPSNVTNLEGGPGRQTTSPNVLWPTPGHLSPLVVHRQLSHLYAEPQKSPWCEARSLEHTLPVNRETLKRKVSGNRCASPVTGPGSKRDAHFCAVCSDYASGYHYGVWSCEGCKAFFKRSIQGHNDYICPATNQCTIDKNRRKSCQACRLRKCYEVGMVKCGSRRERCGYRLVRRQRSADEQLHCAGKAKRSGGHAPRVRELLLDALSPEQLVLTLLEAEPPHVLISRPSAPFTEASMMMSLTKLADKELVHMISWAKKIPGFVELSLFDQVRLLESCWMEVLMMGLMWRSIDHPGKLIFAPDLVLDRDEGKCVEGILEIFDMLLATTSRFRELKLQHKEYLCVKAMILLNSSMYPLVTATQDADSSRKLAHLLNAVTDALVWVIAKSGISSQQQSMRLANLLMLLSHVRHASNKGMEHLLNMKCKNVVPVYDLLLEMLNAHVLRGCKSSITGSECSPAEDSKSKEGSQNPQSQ

| SMILES | ALP enzyme activity relative values (experimental group/blank group) ([1]; 10^−4 M) | ALP enzyme activity relative values (experimental group/blank group) ([1]; 10^−5 M) | ALP enzyme activity relative values (experimental group/blank group) ([1]; 10^−6 M) | ALP enzyme activity relative values (experimental group/blank group) ([1]; 10^−7 M) | ALP enzyme activity relative values (experimental group/blank group) ([1]; 10^−8 M) | ALP enzyme activity relative values (experimental group/blank group) ([1]; 10^−9 M) | Proliferation Rate ([2]; 10^−4 M) | Proliferation Rate ([2]; 10^−5 M) | Proliferation Rate ([2]; 10^−6 M) | Proliferation Rate ([2]; 10^−7 M) | Proliferation Rate ([2]; 10^−8 M) | Proliferation Rate ([2]; 10^−9 M) | Relative values of calcium nodule amount (experimental group/blank group) ([3]; 10^−6 M) | Number of Osteoclasts (cell) ([4]; 10^−6 M) | Number of Osteoclasts (cell) ([4]; 10^−8 M) | Relative values of calcium nodule amount (experimental group/blank group) ([3]; 10^−8 M) | other results |
| --- | --- | --- | --- | --- | --- | --- | --- | --- | --- | --- | --- | --- | --- | --- | --- | --- | --- |
| CCOP(=O)(OCC)OC1=C(c2cc(OC)cc(OC)c2)C(c2ccc(OC)cc2)c2c(OC)cc(OC)cc21 (stereo not drawn) [7b] | 0.919 ± 0.04 | 0.986 ± 0.17 | 0.993 ± 0.01 | 1.195 ± 0.02 | 1.097 ± 0.07 | 0.899 ± 0.11 |  |  |  |  |  |  |  |  |  |  |  |
| CCOP(=O)(OCC)OC1=C(c2cc(OC)cc(OC)c2)C(c2ccc(OP(=O)(OCC)OCC)cc2)c2c(OC)cc(OC)cc21 (stereo not drawn) [7a] | 2.362 ± 0.04 | 1.440 ± 0.31 | 1.023 ± 0.05 | 0.877 ± 0.01 | 0.860 ± 0.01 | 0.861 ± 0.05 |  |  |  |  |  |  |  |  |  |  |  |
| O=c1c(-c2ccc(O)cc2)coc2cc(O)cc(O)c12 [GEN, genistein] |  |  | 1.341 ± 0.01 |  |  |  | 0.02 ± 0.0003 | 0.71 ± 0.007 | 1.05 ± 0.019 | 0.99 ± 0.003 | 1.01 ± 0.005 | 1.03 ± 0.003 | 1.028 ± 0.03 |  |  |  |  |
| O=C(c1ccc(OCCN2CCCCC2)cc1)c1c(-c2ccc(O)cc2)sc2cc(O)ccc12 [Raloxifene] |  |  |  |  |  |  |  |  |  |  |  |  |  | 64 | 67 |  | inhibition at 1 µM ([4]; Mus musculus, RAW264.7, 120 h, 10^−6 M, read-out: Relative Inhibition Rates (%)): 45.3%; inhibition at 0.01 µM ([4]; Mus musculus, RAW264.7, 120 h, 10^−8 M, read-out: Relative Inhibition Rates (%)): 42.7% |
| O=C1c2cc(O)cc(O)c2[C@@H](c2ccc(O)cc2)[C@@H]1c1cc(O)cc(O)c1 [Isopaucifloral F, isopaucifloral F] | 0.732 ± 0.03 | 0.951 ± 0.04 | 0.954 ± 0.02 | 1.135 ± 0.06 | 1.029 ± 0.11 | 0.864 ± 0.05 | 1.24 ± 0.028 | 1.06 ± 0.014 | 1.02 ± 0.024 | 0.98 ± 0.020 | 0.98 ± 0.045 | 0.95 ± 0.016 | 0.932 ± 0.03 | 85 | 102 | 0.917 ± 0.03 | proliferation rates ([2]; highest value of each compound, concentration not given): 124%; activity at estrogen receptor ERβ [5]: selective agonist; log P [6]: 1.34; CLint(liver) [7]: 123.4 mL/min/kg; T1/2 [7]: 10.1 min; Relative Inhibition Rates (%) ([4]; 10^−4 M): 28.2%; Number of Osteoclasts (cell) ([4]; 10^−4 M): 84 cell; Relative Inhibition Rates (%) ([4]; 10^−6 M): 27.4%; Relative Inhibition Rates (%) ([4]; 10^−8 M): 12.8%; Relative values of calcium nodule amount (experimental group/blank group) ([3]; 10^−4 M): 0.982 ± 0.04; Relative values of calcium nodule amount (experimental group/blank group) ([3]; 10^−5 M): 0.915 ± 0.03; Relative values of calcium nodule amount (experimental group/blank group) ([3]; 10^−7 M): 0.964 ± 0.03; Relative values of calcium nodule amount (experimental group/blank group) ([3]; 10^−9 M): 0.916 ± 0.03; ALP enzyme activity, times those of the control group ([1]; highest value, concentration not given): 1.14 times; ALP enzyme activity increased by ([1]; versus control group, concentration not given): 13.5% |
| C[C@]12CC[C@@H]3c4ccc(O)cc4CC[C@H]3[C@@H]1CC[C@@H]2O [E2, estradiol] |  |  |  |  | 1.050 ± 0.02 |  | 0.05 ± 0.002 | 0.82 ± 0.003 | 1.07 ± 0.019 | 1.08 ± 0.003 | 1.07 ± 0.005 | 1.06 ± 0.003 |  |  |  | 1.007 ± 0.02 |  |

Source: US12384806B2, “Isopaucifloral F phosphate compound and pharmaceutical use thereof” (FUDAN UNIVERSITY, priority 2020, dated 2025)
